# Measured values from patent US8741889B2, “Method of treating non-small cell lung cancer and colon cancer with gamma-secretase inhibitor” (Hoffmann-La Roche Inc, priority 2008, dated 2014).
# How the values were obtained:
# [1] = mouse, in vivo, 10 mg/kg
# Procedure: Treatment for the MiaPaca2 study began on Feb. 8, 2007 (day 17 post tumor implant), for AsPC1 on Mar. 23, 2007 (day 9 post tumor implant), and for the BxPC3 study on May 30, 2007 (day 8 post tumor implant). Oral vehicle or the Compound (1) suspension was dosed using a sterile 1 cc syringe and 18-gauge gavage needle (0.2 ml/animal) once daily (qd) for 21-28 days, or using an intermittent schedule (7 days on, 7 days off, 7 days on (7+/7−/7+), 7 days on, 7 days off (7+/7−), 3 days on, 4 days off (3+/4−), or 14 days on, 14 days off (14+/14−)). Gemcitabine was administered to the mice intraperitoneally (ip) q3d (every 3 days) using a 1 cc syringe and 26 gauge needle.
# Weight loss was graphically represented as percent change in mean group body weight, using the formula: ((W−W0)/W0)×100, where ‘W’ represents mean body weight of the treated group at a particular day, and ‘W0’ represents mean body weight of the same treated group at initiation of treatment.
# [2] = system: A549 non-small cell lung carcinoma (NSCLC) xenografts; assay: Antitumor efficacy in A549 NSCLC xenografts in nude mice; format: in vivo; conditions: for % TGI: day 47
# Procedure: In the current study, compound (1) was evaluated for its antitumor activity against the A549 NSCLC human xenograft model in nude mice. A549 cells appear to have a functional Notch signaling pathway since receptors, ligands, and downstream effectors such as Hes-1 and Hey-1 are expressed (as assessed by PCR-based gene expression profiling). A549 cells have at least one identifiable defect in the Notch pathway; the negative regulator Numb is expressed only at low levels. In vitro, nM concentrations of compound (1) induce a less transformed phenotype in A549 cells and loss of growth in soft agar […], which is consistent with mechanistic inhibition of Notch activation. […] Female nude mice (10/group), obtained from Charles River Laboratories (Wilmington, Mass.) were used when they were approximately 13-14 weeks old and weighed approximately 23-25 grams. The health of all animals was determined daily by gross observation of experimental animals and by the analyses of blood samples of sentinel animals that were housed on the shared shelf racks. All animals were allowed to acclimate and recover from any shipping related stress for a minimum of 72 hours prior to experimental use. Autoclaved water and irradiated food [5058-ms Pico chow (mouse) Purina, Richmond, Ind.] were provided ad libitum, and the animals were maintained on a 12 hour light and dark cycle. Cages, bedding and water bottles were autoclaved before use and were changed weekly. A549 human NSCLC cells were purchased from ATCC (Manassas, Va.) and cultured in RPMI 1640 culture medium with 10% (v/v) FBS. Cells were grown and harvested by members of the Oncology In Vivo Section (OIVS). Each mouse received 7.5×10^6 cells in 0.2 ml PBS (Phosphate Buffered Saline) implanted subcutaneously in the right hind flank by members of OIVS on Aug. 17, 2006. […] Compound (1) was mixed vigorously prior to withdrawal and administration. Formulated compound and vehicle were prepared weekly and stored at 4° C., as set out below. […] Treatment began on Sep. 12, 2006 (day 26 post tumor cell implant). […] 19, 2006 (day 33 post tumor cell implant). […] 3, 2006 (day 47 post tumor cell implant). Efficacy data was graphically represented as the mean tumor volume+standard error of the mean (SEM). Tumor volumes of treated groups were presented as percentages of tumor volumes of the control groups (% T/C), using the formula: 100×((T−T0)/(C−C0)), where T represented mean tumor volume of a treated group on a specific day during the experiment, T0 represented mean tumor volume of the same treated group on the first day of treatment; C represented mean tumor volume of a control group on the specific day during the experiment, and C0 represented mean tumor volume of the same treated group on the first day of treatment. Tumor volume (in cubic millimeters) was calculated using the ellipsoid formula: (D×(d2))/2 where ‘D’ represents the large diameter of the tumor, and ‘d’ represents the small diameter. In some cases, tumor regression and/or percent change in tumor volume was calculated using the formula: ((T−T0)/T0)×100 where ‘T’ represents mean tumor volume of the treated group at a particular day, and ‘T0’ represents mean tumor volume of the same treated group at initiation of treatment. Statistical analysis was determined by the rank sum test and One Way Anova and a post-hoc Bonferroni t-test (SigmaStat, version 2.0, Jandel Scientific, San Francisco, Calif.). Differences between groups were considered to be significant when the probability value (p) was ≦0.05. […] Percent tumor growth inhibition was calculated on day 47, which was the final day of treatment for the 21-day treated groups, 7 days post-treatment for 14-day treated groups (14+/7−), or 14-days post treatment for the 7-day treated group (7+/14−).
compound,measurement,setting,value
"CC(C)(C(=O)NCC(F)(F)C(F)(F)F)C(=O)N[C@@H]1C(=O)Nc2ccccc2-c2ccccc21 [Compound (1), 2,2-Dimethyl-N—((S)-6-oxo-6,7-dihydro-5H-dibenzo[b,d]azepin-7-yl)-N′-(2,2,3,3,3-pentafluoro-propyl)-malonamide]",mice with >20% body weight loss deemed toxicity-related,[1],one
same,% TGI,[2]; 3 mg/kg po bid × 21 days,83%
same,% TGI,"[2]; 3 mg/kg po bid, 14+/7− schedule",83%
same,% TGI,[2]; 3 mg/kg po qd × 21 days,76%
same,% TGI,"[2]; 3 mg/kg po qd, 14+/7− schedule",66%
same,% TGI,[2]; 10 mg/kg po bid × 21 days,72%
same,% TGI,"[2]; 10 mg/kg po bid, 14+/7− schedule",80%
same,% TGI,[2]; 10 mg/kg po qd × 21 days,70%
same,% TGI,"[2]; 10 mg/kg po qd, 14+/7− schedule",77%
same,% TGI,"[2]; 30 mg/kg po bid, 14+/7− schedule",79%
same,% TGI,[2]; 30 mg/kg po qd × 21 days,66%
same,% TGI,"[2]; 30 mg/kg po qd, 14+/7− schedule",79%
same,inhibition of tumor growth sustained post treatment,"[2]; 60 mg/kg bid, 7+/14− schedule (to day 67)",up to 34 days
same,% TGI,"[2]; 60 mg/kg po bid, 7+/14− schedule",91%
same,% TGI,"[2]; 60 mg/kg po qd, 14+/7− schedule",88%
same,% TGIs (range),"[2]; 3, 10 or 30 mg/kg once or twice daily for 14 (14+/7−) or 21 days",66-83%
same,inhibition of tumor growth sustained post treatment,[2]; all 21-day treated groups (to day 63),up to 16 days
same,growth suppression lasting post treatment,"[2]; all qd or bid groups, 14+/7− schedule (to day 63)",up to 23 days
same,tumor growth inhibition (range),[2]; seven or fourteen days of BID treatment out of a 21 day cycle,79-91%
